Target: Sperm whale WT Mb (myoglobin, Mb) (Physeter macrocephalus, UniProt P02185, F44H/H65A)
Experiment: biochemical

Sequence of Sperm whale WT Mb (myoglobin, Mb) (P02185 2-154 F44H/H65A): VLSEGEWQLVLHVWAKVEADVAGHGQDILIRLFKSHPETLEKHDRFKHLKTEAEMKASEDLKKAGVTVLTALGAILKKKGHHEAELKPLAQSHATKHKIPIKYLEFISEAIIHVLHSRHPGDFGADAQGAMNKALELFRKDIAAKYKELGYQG

SMILES: CN(C)c1ccc(C(=C2C=CC(=[N+](C)C)C=C2)c2ccccc2)cc1 [MG, malachite green]
- Kd: 474 µM

— article PMC9029994 (RSC Advances, 2021)
